The values below come from US7943795B2, “Vitamin D receptor modulators” (Eli Lilly and Company, priority 2004, dated 2011).

SMILES strings stand for the structures.

For orientation: EC50 means the concentration needed to bring the measured effect to its halfway point.

The target in one series is T1, RXR-VDR heterodimer (Homo sapiens, UniProt P11473).
T1 construct: add the Reporter gene pFR-LUC; and add the Gal-4-RXR-DEF and VP16-VDR-LBD; expressed in transfected cells; host or cells: SaOS-2 cells
T1 sequence (P11473 127-423 limits assumed): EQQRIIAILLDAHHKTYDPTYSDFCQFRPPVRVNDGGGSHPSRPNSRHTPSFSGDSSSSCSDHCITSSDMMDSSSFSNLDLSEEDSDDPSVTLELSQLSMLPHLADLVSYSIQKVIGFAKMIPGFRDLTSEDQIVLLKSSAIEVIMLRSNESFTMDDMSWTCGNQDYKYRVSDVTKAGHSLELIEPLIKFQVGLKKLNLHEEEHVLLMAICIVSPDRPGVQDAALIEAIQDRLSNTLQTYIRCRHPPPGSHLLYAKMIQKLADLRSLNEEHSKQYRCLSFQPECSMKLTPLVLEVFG
T1 sequence (P19793 201-462 partner limits assumed): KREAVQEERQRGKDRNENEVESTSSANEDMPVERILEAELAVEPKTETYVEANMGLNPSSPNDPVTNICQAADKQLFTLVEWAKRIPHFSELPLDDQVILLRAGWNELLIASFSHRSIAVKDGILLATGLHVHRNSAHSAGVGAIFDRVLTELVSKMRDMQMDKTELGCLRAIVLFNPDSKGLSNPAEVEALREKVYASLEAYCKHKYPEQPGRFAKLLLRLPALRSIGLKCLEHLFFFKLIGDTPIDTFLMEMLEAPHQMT
Description: RXR-VDR heterodimerization (SaOS-2 cells) test. It counts as cell-based. The settings on record: Gal-4-RXR-DEF / VP16-VDR-LBD, luciferase reporter. The method, then:
2. The RXR-VDR heterodimerization (SaOS-2 cells) test is described in the “Assay” section of the Description, infra.
1. The RXR-VDR Heterodimer Assay:
This assay provides the VDR activity of a test compound. It is desirable to have low EC50 values for a compound in this assay. […] Desired assay results are EC50 values less than or equal to 600 nM. Preferred assay results are less than 250 nM, and most preferably less than 150 nM.
(1) Materials and Method for RXR-VDR Heterodimerization Assay Transfection
• Method: Reagents: FuGENE 6 Transfection Reagent (Roche Cat #1 814 443); Growth Media: D-MEM High Glucose (Gibco BRL Cat #11054-020), 10% heat inactivated FBS, (Gibco BRL Cat#10092-147) 1% antibiotic-antimycotic (Ab-Am); (Gibco BRL Cat #15240-062). • Cells: Grow SaOS-2 cells in T-150 cm^2 culture flasks in growth media keeping the density at 5-6×10^5 cells/ml. Passage cells 1:3 twice a week. Add Trypsin EDTA (Gibco BRL Cat #25300-020) and incubate. Resuspend cells in plating media and transfer into growth media. • Wash Media: HBSS Low Glucose Without Phenol Red (Gibco BRL Cat #14175-095), 1% Ab-Am. Plating Media: D-MEM Low Glucose Without Phenol Red (Gibco BRL Cat #11054-020), 1% Ab-Am; D-MEM; 10% Stripped FBS (Hyclone Cat#SH30068.03 Lot #AHM9371); • Transfection/Treatment Media: D-MEM Low Glucose Without Phenol Red only; T-150 cm^2 culture flask: Use Corning Coastar T-150 cm^2 culture flask (Cat #430825) to grow the cells. • Luciferase Assay Reagent: Use Steady-Glo Luciferase Reagent from Promega (Cat #E2550) Consists of: E2533 Assay Substrate, lyophilized product and E2543 Assay Buffer. Thaw at room temperature and store. • Cell Harvesting/Count: Aspirate media from culture flask, rinse cells with HBSS and aspirate. Add trypsin and incubate. When cells appear detached, resuspend cells in growth media. Transfer into a new flask with fresh growth media for passaging the cells. Plate 96 well plates and two extra plates. Mix the cell suspension using pipette. To count the cells using a Hematocytometer. • Plate seeding: Use plating media 10% Stripped FBS in D-MEM Low Glucose, without Phenol Red, 1% Ab-Am. Plate 14 plates @ 165 μl/well. In sterile flask add cell suspension to plating media and mix. Add cells/well. Place the cells in the incubator. Cells should be about 75% confluent prior to transfection. DAY 2: Transfection: Step 1, DNA and Media: Add plain DMEM media to tubes for mixing the DNA; add the Reporter gene pFR-LUC; and add the Gal-4-RXR-DEF and VP16-VDR-LBD. Step 2, FuGENE and Media: Prepare plain DMEM media in a tubes for mixing FuGENE, add FuGENE 6 Transfection Reagent, and incubate. Step 3, FuGENE, DNA and Media Complex: Add FuGENE Media complex from step 2 to DNA Media complex from step 1 and incubate. Step 4, FuGENE, DNA and Media Complex to 96 well plate: Add FuGENE-DNA-Media complex from step 3 to each plate. Incubate. • Day 3: Dosing: Treatment preparation. Allow for transfection time. Make a stock solution of the compounds in DMSO and vortex until all the compounds have been dissolved. Further dilute in D-MEM (Low Glucose—without Phenol Red) Add compounds in quadruplicate to give desired final volume then incubate. • Day 4: Luciferase Assay: Read the plates after drug treatment. Remove part of media from all the wells and leave remainder. Add Steady-Glo Luciferase Reagent mixture/wells and incubate. Count each well using a Luminescence counter, Top Count NXT by Packard preferably set a delay between plates to reduce the background.
On the technique in general: In a reporter assay the amount or activity of a reporter protein is the signal.

Another series deals with rat osteocalcin promoter. Briefly: OCN (osteocalcin) promoter assay. Particulars: RG-15 (ROS 17/2.8) cells, 48 hr treatment, luciferase reporter. Format: cell-based. The method, then:
4. The OCN Promoter test is described in the “Assay” section of the Description, infra.
The OCN (Osteocalcin) Promoter Assay
The OCN Promoter Assay is an indicator and marker for osteoporosis. Desired assay results are EC50 less than or equal to 325 nM. Preferred assay results are less than 50 nM.
The activation of osteocalcin by VDR ligands is evaluated in a rat osteoblast-like cell line RG-15 (ROS 17/2.8) stably expressing rat osteocalcin promoter fused with luciferase reporter gene. The stable cell lines are established as reported before (Activation of Osteocalcin Transcription involves interaction of protein kinase A- and Protein kinase C-dependent pathways. Boguslawski, G., Hale, L. V., Yu, X.-P., Miles, R. R., Onyia, J. E., Santerre R. F., Chandrasekhar, S. J Biol. Chem. 275, 999-1006, 2000). Confluent RG-15 cells maintained in DMEM/F-12 medium (3:1) containing 5% FBS, 300 μg/ml G418 and at 37° C. under 5% CO2/95% air atmosphere are trypsinized (0.25% trypsin) and plated into white opaque 96-well cell culture plates (25000 cells/well). After 24 hr, cells (in DMEM/F-12 medium+2% FBS) are treated with various concentrations of compounds, dissolved in DMSO. The final DMSO concentration remains at 0.01% (v/v). After 48 hr treatment, the medium is removed, cells are lysed with 50 μl of lysis buffer (From Luciferase reporter assay system, Roche Diagnostics, Indianapolis, Ind.) and then assayed for luciferase activity using the Luciferase Reporter Gene Assay kit from Boehringer Mannheim as per manufacturer's specifications.

The nature of series [1]: Mouse hypercalcemia assay. It counts as in vivo. The method, then:
5. The Mouse Hypercalcemia test is described in the “Assay” section of the Description, infra.
The Mouse Hypercalcemia Assay
The Mouse Hypercalcemia Assay is a six day hypercalcemia test for toxicity and selectivity. Acceptable test results are levels greater than 30 μg/kg/day. Preferred assay results are levels greater than 300 μg/kg/day.
Weanling, virus—antibody-free, five to six weeks old female DBF mice (Harlan, Indianapolis, Ind.) are used for all the studies. Animals are allowed to acclimate to local vivarium conditions for 2 days. Mice are maintained on a 12 hr light/dark cycle at 22° C. with ad lib access to food (TD 5001 with 1.2% Ca and 0.9% P, Teklad, Madison, Wis.) and water. The animals then are divided into groups with 4-5 mice per group. Different doses of test compounds prepared in 10% ethanol and 90% sesame oil, or in an aqueous suspension of sodium lauryl sulfate and CMC (the latter formulation for acidic compounds) are administered to mice orally via gavage for 6 days. 1α-25(OH)2D3 0.5 μg/kg/d was also given to one group of mice as the positive control. Serum ionized calcium is evaluated at 6 hours after the last dosing under isoflurane anesthesia by Ciba-Corning Ca++/PH Analyzer, (Model 634, Chiron Diagnostics Corp., East Walpole, Mass.). Raw data of group differences is assessed by analysis of variance (ANOVA) using Fisher's protected least significant difference (PLSD) where the significance level was P<0.05.

The next series has as its target T2, VDR (Homo sapiens, UniProt P11473).
T2 construct: the receptor expression vector pGal4-VDR-LBD (10 ng); expressed in transfected cells; host or cells: Caco-2 cells
T2 sequence (P11473 127-423 limits assumed): T1 sequence (P11473 127-423 limits assumed)
Briefly: VDR CTF (Caco-2 cells) co-transfection assay. It counts as cell-based. The settings on record: pGal4-VDR-LBD, luciferase reporter. The procedure: 3. The VDR CTF (Caco-2 cells) test is described in the “Assay” section of the Description, infra.
The Caco-2 cell assay is an indicator for the undesirable condition of hypercalcemia. This co-transfection assay is a surrogate assay for in vivo calcemic activity of VDR ligands. It is desirable to have high EC50 values for a test compound in this assay. The higher the EC50 values for a compound the less calcemic it will be in vivo. Desired assay results are EC50 greater than or equal to 300 nM. Preferred assay results are greater than 1000 nM.
Caco-2 cells, grown in phenol red free, DMEM (Invitrogen, Carlsbad, Calif.) containing 10% charcoal-stripped FBS (Hyclone, Logan, Utah), are transfected with Fugene 6 reagent (Roche Diagnostics, Indianapolis, Ind.). Cells (5000/well) are plated 18 h before transfection in a 96 well plate. The cells are transfected with Gal4-responsive reporter pFRLuc (150 ng, Stratagene, La Jolla Calif.) and the receptor expression vector pGal4-VDR-LBD (10 ng), along with Fugene 6 reagent (0.2 μl/well). The DNA-Fugene complex is formed by incubating the mixture for 30 m at room temperature. The cells are transfected in triplicate for 5 h, and treated with various concentrations of VDR ligands (from 0.01 nM to […] concentration range) 18 h post-transfection. The luciferase activity is quantified using Steady-Glo reagent kit (Promega, Madison, Wis.) as per manufacturer's specifications.

Where [2] appears, read: no effect level: highest dose that did not cause hypercalcemia, oral gavage for 6 days, female DBF mice, serum ionized calcium.

Turning to `CCC(CC)(c1ccc(OCC(O)C(C)(C)C)c(C)c1)c1ccc2cc(C(=O)O)ccc2c1` (single isomer, unassigned) [Ex. 2B, 6-{1-Ethyl-1-[4-(2-hydroxy-3,3-dimethyl-butoxy)-3-methyl-phenyl]-propyl}-naphthalene-2-carboxylic acid], the EC50 at RXR-VDR heterodimer turned out to be 25.3 nM; in the series on rat osteocalcin promoter, 18.4 nM. Further, the “Mouse Hypercal” value in series [1] (female, DBF, mouse, in vivo, po, 6 days) is 1000 µg/kg/day.

For the compound `CCC(CC)(c1ccc(OCC(=O)C(C)(C)C)c(C)c1)c1ccc2ccc(C(=O)O)cc2c1` [Ex. 6, 7-{1-[4-(3,3-Dimethyl-2-oxobutoxy)-3-methylphenyl]-1-ethylpropyl}naphthalene-2-carboxylic acid], the EC50 on RXR-VDR heterodimer turned out to be 715 nM; on VDR, 714 nM; in the series with rat osteocalcin promoter (Rattus norvegicus, 48 h) it was 104 nM.

Regarding `CCC(Oc1ccc(C(CC)(CC)c2ccc3cc(C(=O)NCC(=O)O)ccc3c2)cc1C)C(O)C(C)(C)C` (stereo not drawn) [Ex. 7, 2-[6-{1-ethyl-1-[4-(1-ethyl-2-hydroxy-3,3-dimethyl-butoxy)-3-methyl-phenyl]-propyl}-naphthalene-2-carbonylamino]acetic acid], the EC50 on RXR-VDR heterodimer turned out to be 2.6 nM; in the series with rat osteocalcin promoter (Rattus norvegicus, 48 h) it was 0.7 nM. Moreover, the “Mouse Hypercal” value in series [1] (setting [2]) was 100 µg/kg/day.

Take `CCC(Oc1ccc(C(CC)(CC)c2ccc3cc(C(=O)N(C)CC(=O)O)ccc3c2)cc1C)C(O)C(C)(C)C` (stereo not drawn) [Ex. 8, N-methyl-2-[6-{1-ethyl-1-[4-(1-ethyl-2-hydroxy-3,3-dimethyl-butoxy)-3-methyl-phenyl]-propyl}-naphthalene-2-carbonyl-amino]acetic acid]: the EC50 on RXR-VDR heterodimer was 2 nM; with rat osteocalcin promoter (Rattus norvegicus, 48 h), 0.6 nM. In addition, the “Mouse Hypercal” value in series [1] (setting [2]) was 300 µg/kg/day.
